Tested on: bacteria producing various biomarker enzymes
Assay: IO staining of colonies of bacteria producing various biomarker enzymes (Table IVc)
Format: cell-based
Conditions: for F: Fluorescence of colonies (hue): hue of fluorescence of stained colonies, 24 h on agar containing the indicator (Table IVc)
[1] = Enterobacter aerogenes strain 242, a-glucosidase −, 24 h on Nutrient Agar, 150 mg/l alpha-D-Glucosidase Indicator
[2] = Enterobacter cloacae strain 245, a-glucosidase −, 24 h on Nutrient Agar, 150 mg/l alpha-D-Glucosidase Indicator
[3] = Enterobacter sakazakii strain 141, a-glucosidase +, 24 h on Nutrient Agar, 150 mg/l alpha-D-Glucosidase Indicator
[4] = Enterobacter sakazakii strain 142, a-glucosidase +, 24 h on Nutrient Agar, 150 mg/l alpha-D-Glucosidase Indicator
[5] = Escherichia coli strain 270, a-glucosidase −, 24 h on Nutrient Agar, 150 mg/l alpha-D-Glucosidase Indicator
[6] = Shigella sonnei strain 133, a-glucosidase −, 24 h on Nutrient Agar, 150 mg/l alpha-D-Glucosidase Indicator
[7] = Escherichia coli strain 61, glucuronidase +, 24 h on Nutrient Agar, 0.45 mM beta-D-Glucuronidase Indicator
[8] = Escherichia coli strain 62, glucuronidase +, 24 h on Nutrient Agar, 0.45 mM beta-D-Glucuronidase Indicator
[9] = Escherichia coli strain 270, glucuronidase +, 24 h on Nutrient Agar, 0.45 mM beta-D-Glucuronidase Indicator
[10] = Klebsiella pneumoniae strain 164, glucuronidase −, 24 h on Nutrient Agar, 0.45 mM beta-D-Glucuronidase Indicator
[11] = Bacillus cereus strain 51, plc +, 24 h on Tryptic Soy Agar, 0.78 mM PC PLC Indicator, 3.2 g/l BSA, 0.05% Tween80, 5 mM MnCl2
[12] = Bacillus cereus strain 191, plc +, 24 h on Tryptic Soy Agar, 0.78 mM PC PLC Indicator, 3.2 g/l BSA, 0.05% Tween80, 5 mM MnCl2
[13] = Bacillus cereus strain 192, plc +, 24 h on Tryptic Soy Agar, 0.78 mM PC PLC Indicator, 3.2 g/l BSA, 0.05% Tween80, 5 mM MnCl2
[14] = Bacillus cereus strain 289, plc +, 24 h on Tryptic Soy Agar, 0.78 mM PC PLC Indicator, 3.2 g/l BSA, 0.05% Tween80, 5 mM MnCl2
[15] = Bacillus mycoides strain 64, plc +, 24 h on Tryptic Soy Agar, 0.78 mM PC PLC Indicator, 3.2 g/l BSA, 0.05% Tween80, 5 mM MnCl2
[16] = Bacillus thuringiensis strain 66, plc +, 24 h on Tryptic Soy Agar, 0.78 mM PC PLC Indicator, 3.2 g/l BSA, 0.05% Tween80, 5 mM MnCl2
[17] = Escherichia coli strain 61, plc +/−, 24 h on Tryptic Soy Agar, 0.78 mM PC PLC Indicator, 3.2 g/l BSA, 0.05% Tween80, 5 mM MnCl2
[18] = Escherichia coli strain 270, plc +/−, 24 h on Tryptic Soy Agar, 0.78 mM PC PLC Indicator, 3.2 g/l BSA, 0.05% Tween80, 5 mM MnCl2
[19] = Listeria monocytogenes (4b) strain 290, plc +, 24 h on Tryptic Soy Agar, 0.78 mM PC PLC Indicator, 3.2 g/l BSA, 0.05% Tween80, 5 mM MnCl2
[20] = Pseudomonas aeruginosa strain 168, plc +, 24 h on Tryptic Soy Agar, 0.78 mM PC PLC Indicator, 3.2 g/l BSA, 0.05% Tween80, 5 mM MnCl2
[21] = Pseudomonas aeruginosa strain 168, plc +, 24 h on Tryptic Soy Agar, 0.78 mM PC PLC Indicator, 3.2 g/l BSA, 0.05% Tween80, 5 mM MnCl2, natural color, same on agar without substrate
[22] = Pseudomonas aeruginosa strain 168, plc +, 24 h on Tryptic Soy Agar, 0.78 mM PC PLC Indicator, 3.2 g/l BSA, 0.05% Tween80, 5 mM MnCl2, natural fluorescence, same on agar without substrate
[23] = Bacillus cereus strain 289, 24 h on Nutrient Agar, 0.52 mM C1-Esterase Indicator
[24] = Escherichia coli strain 270, 24 h on Nutrient Agar, 0.52 mM C1-Esterase Indicator
[25] = Klebsiella pneumoniae strain 164, 24 h on Nutrient Agar, 0.52 mM C1-Esterase Indicator

## O=C(c1ccccc1)c1ccccc1-n1cc(O[C@H]2O[C@H](CO)[C@@H](O)[C@H](O)[C@H]2O)c2ccc(Cl)cc21 [Indicator I21e, 1-(2-Benzoylphenyl)-6-chloro-1H-indol-3-yl-alpha-D-glucopyranoside]
[1]
  C: Color of colonies: −
  F: Fluorescence of colonies: −
  G: Growth of colonies: +
[2]
  C: Color of colonies: −
  F: Fluorescence of colonies: −
  G: Growth of colonies: +
[3]
  C: Color of colonies: +
  F: Fluorescence of colonies: +/−
  G: Growth of colonies: +
[4]
  C: Color of colonies: +
  F: Fluorescence of colonies: +/−
  G: Growth of colonies: +
[5]
  C: Color of colonies: −
  F: Fluorescence of colonies: −
  G: Growth of colonies: +
[6]
  C: Color of colonies: −
  F: Fluorescence of colonies: −
  G: Growth of colonies: +
  F: Fluorescence of colonies (hue): y-g

## O=C([O-])[C@H]1O[C@@H](Oc2c[nH]c3cc(Cl)ccc23)[C@H](O)[C@@H](O)[C@@H]1O.[Na+] [Indicator I3f, 6-Chloro-1H-indol-3-yl-beta-D-glucuronide sodium salt, reference compound]
[7]
  C: Color of colonies: +
  F: Fluorescence of colonies: −
  G: Growth of colonies: +
[8]
  C: Color of colonies: +
  F: Fluorescence of colonies: −
  G: Growth of colonies: +
[9]
  C: Color of colonies: +
  F: Fluorescence of colonies: −
  G: Growth of colonies: +
[10]
  C: Color of colonies: −
  F: Fluorescence of colonies: −
  G: Growth of colonies: +

## 5-Bromo-4-chloro-1H-indol-3-yl choline phosphate [Indicator I4d, reference compound]
[11]
  C: Color of colonies: +/−
  F: Fluorescence of colonies: −
  G: Growth of colonies: +
[12]
  C: Color of colonies: +/−
  F: Fluorescence of colonies: −
  G: Growth of colonies: +
[13]
  C: Color of colonies: ++
  F: Fluorescence of colonies: −
  G: Growth of colonies: +
[14]
  C: Color of colonies: −
  F: Fluorescence of colonies: −
  G: Growth of colonies: +
[15]
  C: Color of colonies: +
  F: Fluorescence of colonies: −
  G: Growth of colonies: +
[16]
  C: Color of colonies: +/−
  F: Fluorescence of colonies: −
  G: Growth of colonies: +
[17]
  C: Color of colonies: +
  F: Fluorescence of colonies: −
  G: Growth of colonies: +
[18]
  C: Color of colonies: +/−
  F: Fluorescence of colonies: −
  G: Growth of colonies: +
[19]
  C: Color of colonies: −
  F: Fluorescence of colonies: −
  G: Growth of colonies: +
[20]
  G: Growth of colonies: +
[21]
  C: Color of colonies: y-g^1
[22]
  F: Fluorescence of colonies: b^2
  F: Fluorescence of colonies (hue): −

## O=C(c1ccccc1)c1ccccc1-n1cc(O[C@@H]2O[C@H](C(=O)[O-])[C@@H](O)[C@H](O)[C@H]2O)c2ccc(Cl)cc21.[Na+] [Indicator I21f, 1-(2-Benzoylphenyl)-6-chloro-1H-indol-3-yl-beta-D-glucuronide sodium salt]
[7]
  C: Color of colonies: +
  F: Fluorescence of colonies: +/−
  G: Growth of colonies: +
[8]
  C: Color of colonies: +
  F: Fluorescence of colonies: +/−
  G: Growth of colonies: +
[9]
  C: Color of colonies: +
  F: Fluorescence of colonies: +/−
  G: Growth of colonies: +
[10]
  C: Color of colonies: −
  F: Fluorescence of colonies: −
  G: Growth of colonies: +
  F: Fluorescence of colonies (hue): y-o

## CC(=O)Oc1c[nH]c2ccc(Br)c(Cl)c12 [Indicator I4c, 5-Bromo-4-chloro-1H-indol-3-yl acetate, reference compound]
[23]
  C: Color of colonies: −
  F: Fluorescence of colonies: −
  G: Growth of colonies: −
[24]
  C: Color of colonies: −
  F: Fluorescence of colonies: −
  G: Growth of colonies: +/−
[25]
  C: Color of colonies: +
  F: Fluorescence of colonies: −
  G: Growth of colonies: +
  F: Fluorescence of colonies (hue): −

## CC(=O)Oc1cn(-c2ccccc2C(=O)c2ccccc2)c2ccccc12 [Indicator I19c, 1-(2-Benzoylphenyl)-1H-indol-3-yl acetate]
[23]
  C: Color of colonies: ++
  G: Growth of colonies: +
[24]
  C: Color of colonies: +/−
  G: Growth of colonies: +
[25]
  C: Color of colonies: +
  G: Growth of colonies: +

## 1-[2-(2,4-Dimethoxybenzoyl)phenyl]-1H-indol-3-yl choline phosphate [Indicator I25d]
[11]
  C: Color of colonies: +
  F: Fluorescence of colonies: ++
  G: Growth of colonies: +
[12]
  C: Color of colonies: +
  F: Fluorescence of colonies: ++
  G: Growth of colonies: +
[13]
  C: Color of colonies: ++
  F: Fluorescence of colonies: ++
  G: Growth of colonies: +
[14]
  C: Color of colonies: +
  F: Fluorescence of colonies: ++
  G: Growth of colonies: +
[15]
  C: Color of colonies: +
  F: Fluorescence of colonies: ++
  G: Growth of colonies: +
[16]
  C: Color of colonies: +
  F: Fluorescence of colonies: ++
  G: Growth of colonies: +
[17]
  C: Color of colonies: +/−
  F: Fluorescence of colonies: +/−
  G: Growth of colonies: +
[18]
  C: Color of colonies: +/−
  F: Fluorescence of colonies: +/−
  G: Growth of colonies: +
[19]
  C: Color of colonies: −
  F: Fluorescence of colonies: −
  G: Growth of colonies: +
[20]
  G: Growth of colonies: +
[21]
  C: Color of colonies: y-g^1
[22]
  F: Fluorescence of colonies: b^2
  F: Fluorescence of colonies (hue): y-g
